SMILES strings stand for the structures.

One assay has as its system MCH receptors. As to the kind of experiment: MCH receptor activity class (method not given).
Settings: not given
On to `Cc1cc(N[C@H]2CC[C@@H](NC(=O)c3ccc(F)cc3)CC2)nc2ccccc12` [Example 2545, 4-fluoro-N-{cis-4-[(4-methylquinolin-2-yl)amino]cyclohexyl}benzamide], for which the class turned out to be 1. For the compound `Cc1cc(N[C@H]2CC[C@@H](NC(=O)Nc3ccc(Oc4ccccc4)cc3)CC2)nc2ccccc12` [Example 2559, N-{cis-4-[(4-methylquinolin-2-yl)amino]cyclohexyl}-N′-(4-phenoxyphenyl)urea], the class is recorded as 1.

Still in this assay, the particulars now being: MCH receptor activity class 1-3 (percent of control at 10^-7 M or IC50).
For `CN(C)c1cc(N[C@H]2CC[C@@H](CNC(=O)Nc3ccc(F)cc3F)CC2)nc2ccccc12` [compound 2361], the class is 3 (Class 3 The value of percent of control at 10^−7 M was more than 60% or the value of IC50 was more than 200 nM.). The same measure, in the same setting: to `Cc1cc(NC(=O)NC[C@H]2CC[C@@H](Nc3nccc(N(C)C)n3)CC2)c(C(F)(F)F)o1` [compound 2438] belongs 3 (Class 3 The value of percent of control at 10^−7 M was more than 60% or the value of IC50 was more than 200 nM.). On the same count and under the same terms, to `COc1ccc(NC(=S)N[C@H]2CC[C@@H](Nc3nccc(N(C)C)n3)CC2)c(C)c1` [compound 2341] belongs 3 (Class 3 The value of percent of control at 10^−7 M was more than 60% or the value of IC50 was more than 200 nM.); to `CN(C)c1ccnc(N[C@H]2CC[C@@H](NC(=S)Nc3ccc(I)cc3)CC2)n1` [compound 2317], 3 (Class 3 The value of percent of control at 10^−7 M was more than 60% or the value of IC50 was more than 200 nM.); to `Cc1ccc([N+](=O)[O-])c(NC(=O)NC[C@H]2CC[C@@H](Nc3cc(N(C)C)c4ccccc4n3)CC2)c1C` [compound 2397], 3 (Class 3 The value of percent of control at 10^−7 M was more than 60% or the value of IC50 was more than 200 nM.).

The assay is the same for the next values; noted with them: MCH receptor; class by percent of control at 10^-7 M or IC50.
As to `CN(C)c1cc(N[C@H]2CC[C@@H](CNC(=O)Cc3ccccc3)CC2)nc2ccccc12` [compound 172], the class was 3 (Class 3 The value of percent of control at 10^−7 M was more than 60% or the value of IC50 was more than 200 nM.). Still for that read-out and setting: to `CN(C)c1nc(N[C@H]2CC[C@@H](NC(=S)Nc3cccc(C(=O)O)c3)CC2)nc2c1CCCC2` [compound 2009] belongs 3 (Class 3 The value of percent of control at 10^−7 M was more than 60% or the value of IC50 was more than 200 nM.); to `CC(C)CNC(=S)N[C@H]1CC[C@@H](Nc2nc3c(c(N(C)C)n2)CCCC3)CC1` [compound 1944], 3 (Class 3 The value of percent of control at 10^−7 M was more than 60% or the value of IC50 was more than 200 nM.). The same measure, in the same setting: with `CN(C)c1ccc(NC(=O)N[C@H]2CC[C@@H](Nc3nc4c(c(N(C)C)n3)CCCC4)CC2)cc1` [compound 1922] the figure was 3 (Class 3 The value of percent of control at 10^−7 M was more than 60% or the value of IC50 was more than 200 nM.).

Still in this assay, the particulars now being: activity class 1-3: percent of control at 10^-7 M or IC50.
`CN(C)c1nc(N[C@H]2CC[C@@H](NC(=O)NCc3ccccc3Cl)CC2)nc2c1CCCC2` [compound 1675, N-(2-chlorobenzyl)-N′-(cis-4-{[4-(dimethylamino)-5,6,7,8-tetrahydroquinazolin-2-yl]amino}cyclohexyl)urea]: the class was 2 (Class 2: The value of percent of control at 10^−7 M was from 40% to 60% or the value of IC′50 was from 50 nM to 200 nM.).

Staying with this assay, now noted: activity class per percent of control at 10^-7 M or IC50.
For `CN(C)c1nc(N[C@H]2CC[C@@H](CNC(=O)c3ccc([N+](=O)[O-])s3)CC2)nc2c1CCCC2` [compound 1075], the class is 3 (Class 3 The value of percent of control at 10^−7 M was more than 60% or the value of IC50 was more than 200 nM.).

Consider `COc1ccc2ccccc2c1CN[C@H]1CC[C@@H](Nc2cc(N(C)C)c3ccccc3n2)CC1` [compound 1091], for which the class was 3 (Class 3 The value of percent of control at 10^−7 M was more than 60% or the value of IC50 was more than 200 nM.).

The same assay, now with this note: class 1-3 by percent of control at 10^-7 M or IC50.
Regarding `CN(C)c1nc(N[C@H]2CC[C@@H](CNC(=O)/C=C/c3ccccc3)CC2)nc2c1CCCC2` [compound 588], the class was 3 (Class 3 The value of percent of control at 10^−7 M was more than 60% or the value of IC50 was more than 200 nM.).

The assay is the same for the next values; noted with them: class by percent of control at 10^-7 M or IC50.
For the compound `Cc1c(Cl)cccc1NC(=O)N[C@H]1CC[C@@H](Nc2cc(N(C)C)c3ccccc3n2)CC1` [compound 2115], the class was 3 (Class 3 The value of percent of control at 10^−7 M was more than 60% or the value of IC50 was more than 200 nM.). Same read-out and setting: to `CN(C)c1ccnc(N[C@H]2CC[C@@H](CNC(=O)c3cccc(I)c3)CC2)n1` [compound 403] belongs 3 (Class 3 The value of percent of control at 10^−7 M was more than 60% or the value of IC50 was more than 200 nM.); to `CCOc1ccc(Br)cc1CNC[C@H]1CC[C@@H](Nc2nccc(N(C)C)n2)CC1` [compound 1287], 1 (Class 1: The value of percent of control at 10^−7 M was less than 40% or the value of IC50 was less than 50 nM.). Same read-out and setting: with `CN(C)c1nc(N[C@H]2CC[C@@H](NC(=O)Nc3ccc(F)c(F)c3)CC2)nc2c1CCCC2` [compound 1803] the figure was 3 (Class 3 The value of percent of control at 10^−7 M was more than 60% or the value of IC50 was more than 200 nM.). Regarding `Cc1noc(-c2ccccc2)c1NC(=O)N[C@H]1CC[C@@H](Nc2cc(N(C)C)c3ccccc3n2)CC1` [compound 2121, N-(cis-4-{[4-(dimethylamino)quinolin-2-yl]amino}cyclohexyl)-N′-(3-methyl-5-phenylisoxazol-4-yl)urea], the class was 2 (Class 2: The value of percent of control at 10^−7 M was from 40% to 60% or the value of IC′50 was from 50 nM to 200 nM.). Still for that read-out and setting: with `COc1cc(CN[C@H]2CC[C@@H](Nc3nccc(N(C)C)n3)CC2)cc(OC)c1O` [compound 1216] the figure was 3 (Class 3 The value of percent of control at 10^−7 M was more than 60% or the value of IC50 was more than 200 nM.). Still for that read-out and setting: with `COc1ccc(OC)c(CC(=O)NC[C@H]2CC[C@@H](Nc3nccc(N(C)C)n3)CC2)c1` [compound 380] the figure was 3 (Class 3 The value of percent of control at 10^−7 M was more than 60% or the value of IC50 was more than 200 nM.); with `Cc1ccc(-c2ccc(C(=O)NC[C@H]3CC[C@@H](Nc4nccc(N(C)C)n4)CC3)o2)c([N+](=O)[O-])c1` [compound 938], 3 (Class 3 The value of percent of control at 10^−7 M was more than 60% or the value of IC50 was more than 200 nM.). On the same count and under the same terms, with `COc1cc(CC(=O)N[C@H]2CC[C@@H](Nc3cc(N(C)C)c4ccccc4n3)CC2)cc(OC)c1O` [compound 700] the figure was 3 (Class 3 The value of percent of control at 10^−7 M was more than 60% or the value of IC50 was more than 200 nM.); with `CN(C)c1ccnc(N[C@H]2CC[C@@H](NC(=O)/C=C/c3ccccc3[N+](=O)[O-])CC2)n1` [compound 866], 3 (Class 3 The value of percent of control at 10^−7 M was more than 60% or the value of IC50 was more than 200 nM.); with `COc1cc(NC(=S)N[C@H]2CC[C@@H](Nc3nccc(N(C)C)n3)CC2)cc(OC)c1OC` [compound 2265, N-(cis-4-{[4-(dimethylamino)pyrimidin-2-yl]amino}cyclohexyl)-N′-(3,4,5-trimethoxyphenyl)thiourea], 1 (Class 1: The value of percent of control at 10^−7 M was less than 40% or the value of IC50 was less than 50 nM.). For `Cc1ccc(NC(=S)N[C@H]2CC[C@@H](Nc3nc4c(c(N(C)C)n3)CCCC4)CC2)c(Br)c1` [compound 1758], the class is 3 (Class 3 The value of percent of control at 10^−7 M was more than 60% or the value of IC50 was more than 200 nM.). On to `CCCCCC(=O)NC[C@H]1CC[C@@H](Nc2nccc(N(C)C)n2)CC1` [compound 385], for which the class is 3 (Class 3 The value of percent of control at 10^−7 M was more than 60% or the value of IC50 was more than 200 nM.). Take `Cc1ccc(C(=O)NC[C@H]2CC[C@@H](Nc3nc4c(c(N(C)C)n3)CCCC4)CC2)cc1` [compound 613]: the class is recorded as 3 (Class 3 The value of percent of control at 10^−7 M was more than 60% or the value of IC50 was more than 200 nM.). The same measure, in the same setting: with `CN(C)c1cc(N[C@H]2CC[C@@H](NC(=O)NCc3ccc(Cl)cc3Cl)CC2)nc2ccccc12` [compound 2140] the figure was 3 (Class 3 The value of percent of control at 10^−7 M was more than 60% or the value of IC50 was more than 200 nM.).

The same assay, now with this note: class by percent of control at 10^−7 M or IC50.
Regarding `Cc1ccc(C(=O)N[C@H]2CC[C@@H](Nc3ncc(C)c(N(C)C)n3)CC2)cc1F` [compound 2924, N-(cis-4-{[4-(dimethylamino)-5-methylpyrimidin-2-yl]amino}cyclohexyl)-3-fluoro-4-methylbenzamide], the class is listed as 1 (Class 1: The value of percent of control at 10^−7 M was less than 40% or the value of IC50 was less than 50 nM.). Same read-out and setting: with `Cc1cnc(N[C@H]2CC[C@@H](NC(=O)c3ccc(C(F)(F)F)c(F)c3)CC2)nc1N(C)C` [compound 2931] the figure was 3 (Class 3 The value of percent of control at 10^−7 M was more than 60% or the value of IC50 was more than 200 nM.); with `Cc1cc(N(C)C)nc(N[C@H]2CC[C@@H](CNC(=O)c3cccc(OC(F)(F)F)c3)CC2)n1` [compound 2759], 3 (Class 3 The value of percent of control at 10^−7 M was more than 60% or the value of IC50 was more than 200 nM.); with `Cc1cnc(N[C@H]2CC[C@@H](C(=O)N[C@H](C)c3ccc([N+](=O)[O-])cc3)CC2)nc1N(C)C` [compound 2780, cis-4-{[4-(dimethylamino)-5-methylpyrimidin-2-yl]amino}-N-[(1R)-1-(4-nitrophenyl)ethyl]cyclohexanecarboxamide], 1 (Class 1: The value of percent of control at 10^−7 M was less than 40% or the value of IC50 was less than 50 nM.). Still for that read-out and setting: to `CNc1nc(N[C@H]2CC[C@@H](NC(=O)c3ccc(Cl)c(Cl)c3)CC2)ncc1C` [compound 3030] belongs 3 (Class 3 The value of percent of control at 10^−7 M was more than 60% or the value of IC50 was more than 200 nM.). On the same count and under the same terms, with `COc1ccc(C(=O)N[C@H]2CC[C@@H](Nc3ncc(C)c(N(C)C)n3)CC2)cc1` [compound 2913] the figure was 3 (Class 3 The value of percent of control at 10^−7 M was more than 60% or the value of IC50 was more than 200 nM.).

The values above are taken from US20050197350A1, “Novel quinoline, tetrahydroquinazoline, and pyrimidine derivatives and methods of treatment related to the use thereof” (TAISHO PHARMACEUTICAL CO., LTD., priority 2003, published 2005).
